{
  "source": "patent US9000027B2",
  "about": "“Chk1 suppresses a caspase-2 apoptotic response to DNA damage that bypasses p53, bcl-2 and caspase-3” (Dana-Farber Cancer Institute, Inc., priority 2008, dated 2015)",
  "key": {"[1]": {"system": "p53^e7/e7;chk1^MO embryos", "assay": "Epistasis analyses in irradiated p53^e7/e7;chk1^MO embryos (live AO assay)", "format": "in vivo", "conditions": "12.5 Gy", "experimental": "To identify such molecules, we performed in vivo epistasis analyses in zebrafish by knocking down or forcing the expression of candidate pathway contributors in p53^e7/e7;chk1^MO embryos.\nMorpholino oligonucleotides (MOs) synthesized by Gene Tools™ LLC, were resuspended in sterile water at a concentration of 1 mM and delivered into zebrafish embryos at the one-cell stage by microinjection. The injection apparatus consisted of a heat-pulled, filamentous RNAse free capillary tube positioned by a micromanipulator (Narishige™ M-125), through which the MO was pressure-injected using a nitrogen air supply controlled by a microinjector (Harvard Apparatus™ PLI-100). MOs were delivered into the yolk of embryos at the one cell stage, just below the cytoplasm. For each previously unpublished MO, the working concentration was determined as the highest dose compatible with normal zebrafish development in the p53^e7/e7 background (maximal subtoxic concentration). […] 100 ng of bcl-xl mRNA in vitro transcribed from full-length zebrafish bcl-xl cDNA cloned into pCS2 were injected as described above. All embryos were grown at 28.5° C. in egg water (5 mM NaCl, 0.17 mM KCl, 0.4 mM CaCl2 and 0.16 mM MgSO4). Knockdown efficiencies for the chk1, chk2, atm, atr, p63, casp8 and casp9 MOs at their maximal subtoxic concentrations are shown in FIG. 10. The sequences of the PCR primers used for RT-PCR-based monitoring of MO efficiencies are available upon request.\nLive zebrafish embryos were dechorionated in pronase (2.0 mg/mL in egg water) for 3 to 5 min and rinsed five times in egg water at 18 hpf. […] At 24 hpf, embryos were incubated in […] Acridine Orange (AO; Sigma A-6014) in egg water for 30 min at 28.5° C., followed by 3 quick rinses and three 10-min washes in egg water. 5-10 AO-treated embryos were anesthetized in Tricaine ([…]; 3-amino benzoic acid ethylester from Sigma, A-5040) and mounted laterally on a glass slide in warm 0.5% agarose in egg water by streaking a thin layer of the warm agarose across the surface of the slide, and gently pulling the embryos across the agar with a transfer pipette. Lateral images of each zebrafish were acquired on a Zeiss Axioplan2 fluorescence microscope (5× lens), using OpenLab software and a Hammamatsu C4742-95 digital camera. All images were then converted to 8-bit grayscale in NIH ImageJ using the Image>Type>8-bit command. Next, we cropped the images using the Polyonal Selection tool and the Image>Crop functions to include only the trunk of the animal from the head until the beginning of the yolk tube (MO screen; FIG. 1B) or along the entire spinal cord (epistasis analyses; FIGS. 6A & 6D). The area outside of the selected region of interest was cleared using the Edit>Clear Outside command to create a distinct boundary around the area of interest (this is important as it allows the area of interest to be precisely selected after applying the threshold). Next, we split the acquired images into features of interest and background using the Image>Adjust>Threshold function in NIH ImageJ. We then set the maximum threshold of each image to 255 (the lower slide bar in the Threshold window), and adjusted the minimum threshold to the optimized threshold (see below). The threshold was applied using the Black & White display option, with the following Lut options applied; Thresholded pixels to foreground color; Remaining pixels to background color and Black foreground, white background. […] Next, we re-selected the region of interest on the thresholded image, following the bounded image carefully, and analyzed the pixels of the image using the Analyze>Analyze Particles function. The Minimum Size was set to 1px, the Maximum Size was set to the maximum value of 999999 and the Masks option was selected under the Show pull-down menu. The following extended options were also selected: Display Results; Clear Results; Summarize, Size Distribution and Record Starts. […]"}, "zebrafish ATR": {"system": "zebrafish ATR", "assay": "MO knockdown efficiency: western blot of ATR levels", "format": "in vivo", "conditions": "atr MO 0.25 mM, 25.5 hpf lysates", "source_text": "(§1) (A) Western blot of 25.5 hpf zebrafish protein lysates from non-injected and atr MO-injected embryos using an anti-human ATR antibody recognizing an internal peptide that is highly conserved in zebrafish Atr. Detection of a high molecular weight zebrafish band showing the same migration pattern as human ATR (lane 1) strongly supports crossreactivity of the antibody with zebrafish ATR (the predicted molecular weight of zebrafish ATR, 300 kDa, matches that of human ATR). […] The MO concentration used in the MO screen (FIG. 1) and epistasis analyses (FIG. 5), 0.25 mM, leads to a >50% reduction in ATR levels compared to control (compare lanes 5 with 2 and 3). (B-E) Gel migration profiles of RT-PCR products from non-injected and MO-injected embryos using primers in exons flanking the targeted exon (Table 1). All bands were excised and sequenced. […] All RT-PCRs are semi-quantitative with β-actin amplicon serving as loading control. […] Either aberrant splice product results in the occurrence of an inappropriate early stop codon (as a result of in-frame reading of the intron or of a frameshift caused by exon skipping), which is predicted to result in an early truncation of the ATM protein before the PIKK kinase domain. […] As exemplified in lane 4, this same MO concentration could lead to stronger knockdowns, but in this case the embryos could not be scored in the assay. […]"}, "p53^e7/e7 mutant embryos": {"system": "p53^e7/e7 mutant embryos", "assay": "Morpholino screen for suppressors of p53^e7/e7 radioresistance (live AO assay)", "format": "in vivo, zebrafish", "conditions": "p53^e7/e7, 12.5 Gy", "experimental": "We used morpholino antisense oligonucleotides (MOs) to knock down the expression levels of 8 zebrafish S- and G2-checkpoint kinases in p53^e7/e7 mutant embryos and assessed the ability of each knockdown to restore cell death (AO reactivity) at 7.5 hours post-IR (hpIR). We also tested several double-knockdown combinations, as well as knockdowns of non-kinase checkpoint regulators (p21^waf1/cip1 and smc1). For each knockdown, we scored a minimum of 50 embryos and quantified AO staining in at least 5 embryos. To avoid the isolation of false-positives, we adjusted the concentrations of each MO to the maximal dose compatible with normal embryonic development in the p53^e7/e7 background.\nMorpholino oligonucleotides (MOs) synthesized by Gene Tools™ LLC, were resuspended in sterile water at a concentration of 1 mM and delivered into zebrafish embryos at the one-cell stage by microinjection. […] For each previously unpublished MO, the working concentration was determined as the highest dose compatible with normal zebrafish development in the p53^e7/e7 background (maximal subtoxic concentration). […]\nLive zebrafish embryos were dechorionated in pronase (2.0 mg/mL in egg water) for 3 to 5 min and rinsed five times in egg water at 18 hpf. […] Lateral images of each zebrafish were acquired on a Zeiss Axioplan2 fluorescence microscope (5× lens), using OpenLab software and a Hammamatsu C4742-95 digital camera. […]"}, "MK-2 [2]": {"biological_target": "T1, MK-2 (Homo sapiens, UniProt P49137)", "conditions": "concentration initially thought to specifically inhibit Chk1; cited from earlier work"}, "Chk1": {"biological_target": "T2, Chk1 (Homo sapiens, UniProt O14757)", "T2 sequence (O14757 1-476)": "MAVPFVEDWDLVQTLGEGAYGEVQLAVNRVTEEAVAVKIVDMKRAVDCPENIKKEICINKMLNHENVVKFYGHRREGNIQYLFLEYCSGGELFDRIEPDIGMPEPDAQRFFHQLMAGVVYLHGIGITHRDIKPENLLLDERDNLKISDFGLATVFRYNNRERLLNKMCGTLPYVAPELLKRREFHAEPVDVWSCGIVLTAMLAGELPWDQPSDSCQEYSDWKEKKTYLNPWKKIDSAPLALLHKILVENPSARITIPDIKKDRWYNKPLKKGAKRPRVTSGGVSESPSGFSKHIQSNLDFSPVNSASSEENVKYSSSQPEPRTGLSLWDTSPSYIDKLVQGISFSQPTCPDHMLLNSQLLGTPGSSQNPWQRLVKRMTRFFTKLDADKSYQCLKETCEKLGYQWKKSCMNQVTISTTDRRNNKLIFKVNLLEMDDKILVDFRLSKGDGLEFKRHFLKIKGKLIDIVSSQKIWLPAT", "conditions": "concentration initially thought to specifically inhibit Chk1; cited from earlier work"}, "casp9": {"system": "casp9", "assay": "MO knockdown efficiency: RT-PCR of casp9 transcripts", "format": "in vivo, zebrafish", "conditions": "maximal subtoxic MO concentration", "source_text": "as §1"}, "MK-2 [3]": {"biological_target": "T1, MK-2", "assay": "Western blot of MK-2 activity (Hsp-27 Ser82 phosphorylation) in irradiated HeLa cells", "format": "cell-based", "parameters": "endogenous in cells; host or cells: HeLa", "conditions": "irradiated HeLa cells, increasing concentrations of SB203580", "experimental": "Protein extract (5-60 μg) was added to 4× gel loading buffer and 10× denaturing solution (Invitrogen) in appropriate proportions, and samples were incubated at 70° C. for 10 min. Samples were run at 200V for 1 hr on a 4-12% Bis-tris gradient gel (Invitrogen). After electrophoresis, samples were transferred for 1.5 hr (350 mA) to a Nitrocellulose membrane (Millipore) using a submerged transfer apparatus (Bio-Rad). Membranes were then blocked with 5% milk in Tris-buffered saline with 0.1% tween (TBST) and probed overnight at 4° C. with the following antibodies: anti-zebrafish Chk1 (diluted 1:200), anti-zebrafish Chk2 (1:200), anti-P-Cdc2 (1:1000), anti-actin (1:2000), anti-human ATR (1:500) and Stressgen anti-human-caspase-3 (1:500) for zebrafish immunoblots; and anti-caspase-2 (1:200), Upstate anti-caspase-3 (1:500), anti-P-ATM (1:500), anti-ATM (1:500), Santa Cruz anti-human Chk1 (1:1000), Santa Cruz anti-human Chk2 (1:1000), anti-P-Chk1 (1:500), anti-P-Chk2 (1:500), anti-P-H2A.X (1:2000), anti-P-cdc25C (1:1000), anti-P-HSP27 (1:1000), anti-HSP27 (1:1000), anti-P-Cdc2 (1:1000), anti-p53 (1:1000) and anti-GAPDH (1:5000) for immunoblots of human tumor cell lysates. Detailed references for all primary antibodies can be found in the ‘Antibodies’ section elsewhere herein."}},
  "data": [
    {"compound": "atr MO: morpholino against zebrafish atr atg/5'UTR (SEQ ID NO: 15) (TGACATTTCTAGTCCTTGCTCCATC; antisense; all phosphorodiamidate morpholino (PMO))", "values": [
      {"measurement": "reduction of the mean p53^e7/e7;chk1^MO AO response", "setting": "[1]", "result": "~90", "unit": "%"},
      {"measurement": "reduction in ATR levels compared to control", "setting": "zebrafish ATR", "result": "> 50", "unit": "%"}
    ]},
    {"compound": "chk1 mismatch MO: 5 base-pair mismatch version of chk1 MO, agCcaGagcGattatCcaatGttcg (SEQ ID NO: 12) (AGCCAGAGCGATTATCCAATGTTCG; all phosphorodiamidate morpholino (PMO))", "values": [
      {"measurement": "radiosensitization of p53 mutants", "setting": "p53^e7/e7 mutant embryos", "result": "failed to radiosensitize p53 mutants"}
    ]},
    {"compound": "CN[C@@H]1C[C@H]2O[C@@](C)([C@@H]1OC)n1c3ccccc3c3c4c(c5c6ccccc6n2c5c31)C(=O)N[C@H]4O", "note": "[UCN-01, 7-hydroxystaurosporine]", "values": [
      {"measurement": "MK-2 inhibition", "setting": "MK-2 [2]", "result": "inhibits both Chk1 and MK-2"},
      {"measurement": "Chk1 inhibition", "setting": "Chk1", "result": "inhibits both Chk1 and MK-2"}
    ]},
    {"compound": "casp9 MO: morpholino against zebrafish casp9 splice donor site (SEQ ID NO: 26) (GATGGAAAAACACACTTACGGACTG; antisense; all phosphorodiamidate morpholino (PMO))", "values": [
      {"measurement": "effect on IR-induced cell death (AO labeling) of p53^e7/e7;chk1^MO embryos", "setting": "[1]", "result": "complete absence of effects"},
      {"measurement": "casp9 knockdown", "setting": "casp9", "result": "~50", "unit": "%"}
    ]},
    {"compound": "C[S+]([O-])c1ccc(-c2nc(-c3ccncc3)c(-c3ccc(F)cc3)[nH]2)cc1", "note": "(centres unmarked) [SB203580]", "values": [
      {"measurement": "phosphorylated Hsp-27 at Ser82 versus native Hsp-27", "setting": "MK-2 [3]", "result": "reduction in the abundance of phosphorylated Hsp-27 at Ser82"}
    ]}
  ]
}
